Reference: ChEMBL document CHEMBL3872241, “Synthesis and bioactivity evaluation of 2,3-diaryl acrylonitrile derivatives as potential anticancer agents” (Bioorg Med Chem Lett, 2017)

Assays:
[1] = Cytotoxicity against human Bel7402 cells assessed as cell growth inhibition at 100 uM after 48 hrs by MTT assay; assay type: functional; details: Bel-7402, 48 h, read-out: GI
[2] = Cytotoxicity against human L02 cells assessed as cell growth inhibition after 48 hrs by MTT assay; assay type: toxicity, cell-based
[3] = Cytotoxicity against human HeLa cells assessed as cell growth inhibition after 48 hrs by MTT assay; assay type: functional, cell-based
[4] = Cytotoxicity against human HeLa cells assessed as cell growth inhibition at 100 uM after 48 hrs by MTT assay; assay type: functional; details: read-out: GI
[5] = Cytotoxicity against human Bel7402 cells assessed as cell growth inhibition after 48 hrs by MTT assay; assay type: functional, cell-based; details: Bel-7402, 48 h
[6] = Cytotoxicity against human L02 cells assessed as cell growth inhibition at 100 uM after 48 hrs by MTT assay; assay type: toxicity, cell-based; details: read-out: GI
[7] = Cytotoxicity against human HCT116 cells assessed as cell growth inhibition at 100 uM after 48 hrs by MTT assay; assay type: functional; details: HCT-116, 48 h, read-out: GI
[8] = Cytotoxicity against human HCT116 cells assessed as cell growth inhibition after 48 hrs by MTT assay; assay type: functional, cell-based; details: HCT-116, 48 h
HCT-116 = assay: Selectivity index, ratio of IC50 for human L02 cells to IC50 for human HCT116 cells; assay type: functional
Bel-7402 = assay: Selectivity index, ratio of IC50 for human L02 cells to IC50 for human Bel7402 cells; assay type: functional

SMILES | inhibition of growth at 100 µM [1] | IC50 at 48 h [2] | IC50 [3] | inhibition of growth at 100 µM [4] | IC50 [5] | inhibition at 48 h, 100 µM [6] | inhibition of growth at 100 µM [7] | IC50 [8] | Ratio IC50 (HCT-116) | Ratio IC50 (Bel-7402)
COc1cc(OC)cc(/C(C#N)=C/c2ccc(OCC(C)C)cc2)c1 | 7.6% | > 100 µM | > 100 µM | 22.4% | > 100 µM | 13.6% | 32.3% | > 100 µM | – | –
COc1cccc(/C=C(\C#N)c2cc(OC)cc(OC)c2)c1 | 12.4% | > 100 µM | > 100 µM | 36.4% | > 100 µM | 19.5% | 41.1% | > 100 µM | – | –
COc1cc(OC)cc(/C(C#N)=C/c2cccc(C(F)(F)F)c2)c1 | 20% | > 100 µM | > 100 µM | 18.3% | > 100 µM | 29.4% | 28.7% | > 100 µM | – | –
COc1cc(OC)cc(/C(C#N)=C/c2ccccc2C(F)(F)F)c1 | 11.4% | > 100 µM | > 100 µM | 4.9% | > 100 µM | 33.6% | 26.6% | > 100 µM | – | –
COc1cc(OC)cc(/C(C#N)=C/c2ccco2)c1 | – | > 100 µM | 112 µM | – | 75.7 µM | 38.5% | – | 3.31 µM | >30.21 | >1.32
CCOc1cccc(/C=C(\C#N)c2cc(OC)cc(OC)c2)c1 | 5.1% | > 100 µM | > 100 µM | 8.9% | > 100 µM | 18.5% | 38.8% | > 100 µM | – | –
COc1cc(OC)cc(/C(C#N)=C/c2cc(OC)c(OC)c(OC)c2)c1 | 22.3% | > 100 µM | > 100 µM | 24.9% | > 100 µM | 11.6% | 24.1% | > 100 µM | – | –
COc1cc(OC)cc(/C(C#N)=C/c2c(F)cccc2Cl)c1 | 11.1% | > 100 µM | > 100 µM | 35.9% | > 100 µM | 41.8% | 32.9% | > 100 µM | – | –
COc1cc(OC)cc(/C(C#N)=C/c2ccc(OCc3ccccc3)cc2)c1 | 18.6% | > 100 µM | > 100 µM | 20.7% | > 100 µM | 32.7% | 18.7% | > 100 µM | – | –
COc1cc(OC)cc(/C(C#N)=C/c2cccc3ccccc23)c1 | – | 73.6 µM | > 100 µM | 44.9% | 26.4 µM | – | – | 20.4 µM | 3.59 | 2.78
COc1cc(OC)cc(/C(C#N)=C/c2ccc(Cl)cc2)c1 | – | > 100 µM | 15.9 µM | – | 8.04 µM | 33.6% | – | 43.3 µM | >2.31 | >12.43
COc1cc(OC)cc(/C(C#N)=C/c2ccc(F)cc2)c1 | 9.3% | > 100 µM | > 100 µM | 45.8% | > 100 µM | 2.5% | 27.8% | > 100 µM | – | –
COc1cc(OC)cc(/C(C#N)=C/c2cccs2)c1 | – | > 100 µM | > 100 µM | 42.2% | 36.7 µM | 41.7% | – | 31.6 µM | >3.16 | >2.73
COc1cc(OC)cc(/C(C#N)=C/c2ccc(C(F)(F)F)cc2)c1 | – | > 100 µM | > 100 µM | 48.2% | 27.6 µM | 22.9% | – | 21.8 µM | >4.58 | >3.62
COc1cc(OC)cc(/C(C#N)=C/c2ccc(C)cc2)c1 | – | > 100 µM | > 100 µM | 38.6% | 0.59 µM | 23.1% | – | 2 µM | >50 | >169.49
COc1cc(OC)cc(/C(C#N)=C/c2ccccc2Br)c1 | 17.4% | > 100 µM | > 100 µM | 37.2% | > 100 µM | 8.2% | – | 8.44 µM | >11.84 | –
CCCOc1ccccc1/C=C(\C#N)c1cc(OC)cc(OC)c1 | 4.9% | > 100 µM | > 100 µM | – | > 100 µM | 6.4% | 27.7% | > 100 µM | – | –
COc1cc(OC)cc(/C(C#N)=C/c2ccc(N(C)C)cc2)c1 | – | > 100 µM | > 100 µM | 44.4% | 1.74 µM | 26.8% | – | 0.59 µM | >169.49 | >57.47
COc1cc(OC)cc(/C(C#N)=C/c2ccccc2F)c1 | – | > 100 µM | > 100 µM | 44.4% | 72.6 µM | 34.6% | – | 12.2 µM | >8.19 | >1.38
COc1cc(OC)cc(/C(C#N)=C/c2cccc(F)c2)c1 | – | 96 µM | > 100 µM | 41.7% | 61.3 µM | 96% | – | 38 µM | >2.63 | >1.63
COc1cc(OC)cc(/C(C#N)=C/c2ccccn2)c1 | – | 75.5 µM | 56 µM | – | 80.5 µM | – | – | 5.15 µM | 14.66 | 0.94
CCc1ccc(/C=C(\C#N)c2cc(OC)cc(OC)c2)cc1 | – | > 100 µM | > 100 µM | 40.6% | 0.35 µM | 32.8% | – | 1.3 µM | >76.92 | >285.71
CCCOc1ccc(/C=C(\C#N)c2cc(OC)cc(OC)c2)cc1 | – | > 100 µM | > 100 µM | 27.6% | 42 µM | 34.4% | – | 14.2 µM | >7.06 | >2.38
COc1cc(OC)cc(/C(C#N)=C/c2ccccc2Cl)c1 | – | > 100 µM | 28.2 µM | – | 28.5 µM | 11.8% | – | 8.64 µM | >11.57 | >3.51
